One test has as its system Jurkat. Nature of the test: Antiproliferative activity against human Jurkat cells after 72 hrs by Alamar Blue assay. In kind it is functional, cell-based.
The subject of a further test is MCF7. Put plainly: Growth inhibition of human MCF7 cells at 10 uM relative to control. In kind it is functional.
The test system of another test is SW480. Nature of the test: Antiproliferative activity against human SW480 cells after 72 hrs by Alamar Blue assay. In kind it is functional, cell-based. As to conditions: SW480, 72 h.
The subject of the next test is UACC-257. Put plainly: Growth inhibition of human UACC257 cells at 10 uM relative to control. In kind it is functional.
The subject of another test is T47D. Put plainly: Growth inhibition of human T47D cells at 10 uM relative to control. It is filed as functional.
For the next test, the system named is HT-29. Nature of the test: Growth inhibition of human HT29 cells at 10 uM relative to control. It is filed as functional.
A further test has as its system CAKI-1. Put plainly: Growth inhibition of human CAKI1 cells at 10 uM relative to control. In kind it is functional.
Another test concerns BT-549. Nature of the test: Antiproliferative activity against human BT549 cells after 72 hrs by alamar blue assay. In kind it is functional, cell-based. As to conditions: BT-549, 72 h.
The next test concerns SNB-75. Put plainly: Growth inhibition of human SNB75 cells at 10 uM relative to control. In kind it is functional.
The test system of another test is SF-295. Put plainly: Growth inhibition of human SF295 cells at 10 uM relative to control. It is filed as functional.
The subject of a further test is HCT-116. Nature of the test: Growth inhibition of human HCT116 cells at 10 uM relative to control. It is filed as functional.
The test system of the next test is HOP-92. Nature of the test: Growth inhibition of human HOP92 cells at 10 uM relative to control. It is filed as functional.
For a further test, the system named is A549. Put plainly: Growth inhibition of human A549 cells at 10 uM relative to control. It is filed as functional.
A short description of test [1]: Growth inhibition of human HL60(TB) cells at 10 uM relative to control. In kind it is functional, HL-60(TB). The settings on record: HL-60.
In a further test the test system is 786-0. Put plainly: Growth inhibition of human 786-0 cells at 10 uM relative to control. In kind it is functional.
In the next test the test system is SK-MEL-28. Put plainly: Growth inhibition of human SK-MEL-28 cells at 10 uM relative to control. It is filed as functional.
The next test has as its system MOLT-4. Nature of the test: Growth inhibition of human MOLT4 cells at 10 uM relative to control. It is filed as functional.
In the next test the test system is BT-20. Put plainly: Antiproliferative activity against human BT20 cells after 72 hrs by Alamar Blue assay. In kind it is functional, cell-based. As to conditions: BT-20, 72 h.
In the next test the test system is CCRF-CEM. Put plainly: Growth inhibition of human CCRF-CEM cells at 10 uM relative to control. In kind it is functional.

The source of these data is ChEMBL document CHEMBL1157501, “Novel fluorinated acridone derivatives. Part 1: synthesis and evaluation as potential anticancer agents” (Bioorg Med Chem Lett, 2008).

Molecules are shown by their SMILES.

In the case of `Cc1c2c(nc3ccc(Cl)cc13)CC(C(F)(F)F)CC2=O` (stereo not drawn), the IC50 in the test on Jurkat is 5.1 µM; in the test on SW480, 15.3 µM; in the test with BT-549, 12.1 µM; with BT-20, 6.7 µM. In addition, the inhibition at 10 µM was 95% in the test on MCF7; under 20% in the test on UACC-257; 43% with T47D; 43% in the test on HT-29; under 20% in the test with CAKI-1; under 20% in the test on SNB-75. For the same molecule, the inhibition at 10 µM with SF-295 is under 20%; with HCT-116, under 20%; with HOP-92, 58%; in the test on A549, under 20%; in test [1] it was under 20%; with 786-0, under 20%. Also, the inhibition at 10 µM in the test on SK-MEL-28 is under 20%; in the test on MOLT-4, 95%.
As to `O=C1CC(C(F)(F)F)Cc2nc3ccc(Cl)cc3c(-c3ccccc3Cl)c21` (stereo not drawn), the IC50 in the test with Jurkat turned out to be 87.6 µM; in the test on SW480, 21.3 µM; in the test with BT-549, 39.3 µM; with BT-20, 42.1 µM. The inhibition at 10 µM with MCF7, in the test on UACC-257, in the test with T47D, in the test with HT-29, in the test with CAKI-1 and in the test on SNB-75 was under 20% each time. In addition, the inhibition at 10 µM is under 20% in the test on SF-295; 60% with CCRF-CEM; 38% with HCT-116; 38% in the test on HOP-92; 50% in the test with A549; under 20% in test [1]. The inhibition at 10 µM was under 20% in the test on 786-0, under 20% in the test on SK-MEL-28 and 46% in the test with MOLT-4.
Consider `O=C1CC(C(F)(F)F)Cc2nc3ccccc3c(-c3ccccc3)c21` (stereo not drawn), for which the inhibition at 10 µM in the test on MCF7 is under 20%; with UACC-257, 77%; in the test on T47D, under 20%; with HT-29, under 20%; with CAKI-1, under 20%; in the test on SNB-75, under 20%. Besides, the inhibition at 10 µM was under 20% in the test on SF-295; under 20% with CCRF-CEM; 70% with HCT-116; 70% with HOP-92; under 20% in the test on A549; 45% in test [1]. Further, the inhibition at 10 µM in the test with 786-0, with SK-MEL-28 and with MOLT-4 was under 20% each time.
As to `O=C1CC(C(F)(F)F)Cc2nc3ccc(Br)cc3c(-c3ccccc3F)c21` (stereo not drawn), the IC50 was 11.6 µM in the test on Jurkat, 15.5 µM in the test with SW480, 17.4 µM in the test with BT-549 and 23.3 µM in the test with BT-20. For the same molecule, the inhibition at 10 µM is under 20% in the test with MCF7; under 20% in the test with UACC-257; under 20% in the test on T47D; under 20% in the test with HT-29; 45% with CAKI-1; under 20% in the test with SNB-75. Besides, the inhibition at 10 µM is under 20% with SF-295; 28% in the test with CCRF-CEM; 35% in the test on HCT-116; 48% with HOP-92; under 20% with A549; 29% in [1]. The inhibition at 10 µM with 786-0 was 62%; in the test with SK-MEL-28, under 20%; in the test on MOLT-4 it was under 20%.
With `Cc1c2c(nc3cc4c(cc13)OCO4)CC(C(F)(F)F)CC2=O` (stereo not drawn), the inhibition at 10 µM in the test with MCF7 is under 20%; in the test on UACC-257 it was under 20%; in the test on T47D, under 20%; in the test on HT-29, under 20%; with CAKI-1, under 20%; with SNB-75, 25%. The inhibition at 10 µM in the test with SF-295 was 32%; in the test on CCRF-CEM it was under 20%; in the test with HCT-116, under 20%; in the test with HOP-92, under 20%; in the test with A549, 67%; in [1], under 20%. Further, the inhibition at 10 µM in the test with 786-0, with SK-MEL-28 and with MOLT-4 was under 20% throughout.
As to `O=C1CC(C(F)(F)F)Cc2nc3ccc(Cl)cc3c(-c3ccccc3)c21` (stereo not drawn), the IC50 in the test on Jurkat was 12.3 µM; in the test on SW480, 28.4 µM; with BT-549 it was 16.1 µM; in the test on BT-20, 22.1 µM. In addition, the inhibition at 10 µM in the test with MCF7 is under 20%; with UACC-257, 40%; in the test on T47D it was under 20%; in the test with HT-29 it was under 20%; in the test on CAKI-1, 66%; in the test on SNB-75 it was under 20%. Besides, the inhibition at 10 µM in the test with SF-295 was 48%; with CCRF-CEM, under 20%; in the test on HCT-116 it was 25%; in the test on HOP-92, 37%; in the test on A549 it was 80%; in the test with 786-0, under 20%. The inhibition at 10 µM in the test with SK-MEL-28 is under 20%.
